Measured values published in the NIST ThermoML archive (doi:10.1016/j.jct.2007.05.008).

Assay: mn = molality of the nth substance listed, in mol/kg
Conditions: 350 kPa, Liquid; for apparent molar heat capacity: Extra sensitive DSC

[I-].[K+] [potassium iodide] + O
Conditions	apparent molar heat capacity [J/K/mol]	mass density [kg/m3]
278.15 K, m1 = 0.0151	–	1001.67
278.15 K, m1 = 0.0299	–	1003.68
278.15 K, m1 = 0.0701	–	1008.43
278.15 K, m1 = 0.2001	–	1024.58
278.15 K, m1 = 0.5376	–	1064.35
278.15 K, m1 = 0.6957	–	1081.95
278.15 K, m1 = 1.001	–	1117.05
278.15 K, m1 = 2.5	–	1271.29
278.15 K, m1 = 4.636	–	1453.94
278.15 K, m1 = 5.479	–	1515.42
278.15 K, m1 = 7.501	–	1648.17
283.15 K, m1 = 0.0151	–	1001.47
283.15 K, m1 = 0.0299	–	1003.4
283.15 K, m1 = 0.0701	–	1008.17
283.15 K, m1 = 0.2001	–	1024.09
283.15 K, m1 = 0.5376	–	1063.61
283.15 K, m1 = 0.6957	–	1081.08
283.15 K, m1 = 1.001	–	1115.82
283.15 K, m1 = 2.5	–	1268.99
283.15 K, m1 = 4.636	–	1450.65
283.15 K, m1 = 5.479	–	1512.83
283.15 K, m1 = 7.501	–	1645.23
288.15 K, m1 = 0.0151	–	1000.88
288.15 K, m1 = 0.0299	–	1002.77
288.15 K, m1 = 0.0701	–	1007.55
288.15 K, m1 = 0.2001	–	1023.33
288.15 K, m1 = 0.5376	–	1062.62
288.15 K, m1 = 0.6957	–	1080.04
288.15 K, m1 = 1.001	–	1114.31
288.15 K, m1 = 2.5	–	1266.38
288.15 K, m1 = 4.636	–	1448.01
288.15 K, m1 = 5.479	–	1510.11
288.15 K, m1 = 7.501	–	1642.29
298.15 K, m1 = 0.0151	–	998.82
298.15 K, m1 = 0.0299	–	1000.63
298.15 K, m1 = 0.0701	–	1005.39
298.15 K, m1 = 0.2001	–	1021
298.15 K, m1 = 0.5376	–	1059.83
298.15 K, m1 = 0.6957	–	1077.25
298.15 K, m1 = 1.001	–	1110.96
298.15 K, m1 = 2.5	–	1261.31
298.15 K, m1 = 4.636	–	1441.32
298.15 K, m1 = 5.479	–	1503.36
298.15 K, m1 = 7.501	–	1635.01
303.15 K, m1 = 5.479	1.3	–
308.15 K, m1 = 0.0151	–	995.79
308.15 K, m1 = 0.0299	–	997.53
308.15 K, m1 = 0.0701	–	1002.28
308.15 K, m1 = 0.2001	–	1017.73
308.15 K, m1 = 0.5376	–	1056.13
308.15 K, m1 = 0.6957	–	1073.61
308.15 K, m1 = 1.001	–	1106.78
308.15 K, m1 = 2.5	–	1255.84
308.15 K, m1 = 4.001	0.4	–
308.15 K, m1 = 4.636	–	1434.16
308.15 K, m1 = 5.479	1.8	1495.89
308.15 K, m1 = 7.501	–	1626.88
313.15 K, m1 = 4.001	1.4	–
313.15 K, m1 = 5.479	1.7	–
318.15 K, m1 = 0.0151	–	991.94
318.15 K, m1 = 0.0299	–	993.68
318.15 K, m1 = 0.0701	–	998.38
318.15 K, m1 = 0.2001	–	1013.67
318.15 K, m1 = 0.5376	–	1051.77
318.15 K, m1 = 0.6957	–	1069.13
318.15 K, m1 = 1.001	–	1101.94
318.15 K, m1 = 2.5	–	1249.89
318.15 K, m1 = 4.001	1.9	–
318.15 K, m1 = 4.636	–	1426.64
318.15 K, m1 = 5.479	1.2	1488.09
318.15 K, m1 = 7.501	–	1618.36
323.15 K, m1 = 4.001	2	–
323.15 K, m1 = 5.479	0.4	–
328.15 K, m1 = 0.0151	–	987.43
328.15 K, m1 = 0.0299	–	989.17
328.15 K, m1 = 0.0701	–	993.85
328.15 K, m1 = 0.2001	–	1008.93
328.15 K, m1 = 0.5376	–	1046.78
328.15 K, m1 = 0.6957	–	1064
328.15 K, m1 = 1.001	–	1096.55
328.15 K, m1 = 2.5	–	1243.46
328.15 K, m1 = 4.001	1.7	–
328.15 K, m1 = 4.636	–	1418.83
328.15 K, m1 = 5.479	–	1479.85
328.15 K, m1 = 7.501	–	1609.25
333.15 K, m1 = 4.001	1.3	–
338.15 K, m1 = 0.0151	–	982.32
338.15 K, m1 = 0.0299	–	984.03
338.15 K, m1 = 0.0701	–	988.65
338.15 K, m1 = 0.2001	–	1003.58
338.15 K, m1 = 0.5376	–	1041.14
338.15 K, m1 = 0.6957	–	1058.16
338.15 K, m1 = 1.001	–	1090.66
338.15 K, m1 = 2.5	–	1236.58
338.15 K, m1 = 4.001	0.6	–
338.15 K, m1 = 4.636	–	1410.65
338.15 K, m1 = 5.479	–	1471.57
338.15 K, m1 = 7.501	–	1600.65
348.15 K, m1 = 0.0151	–	976.56
348.15 K, m1 = 0.0299	–	978.32
348.15 K, m1 = 0.0701	–	982.92
348.15 K, m1 = 0.2001	–	997.75
348.15 K, m1 = 0.5376	–	1035.02
348.15 K, m1 = 0.6957	–	1051.97
348.15 K, m1 = 1.001	–	1084.3
348.15 K, m1 = 2.5	–	1229.37
348.15 K, m1 = 4.636	–	1402.31
348.15 K, m1 = 5.479	–	1463.16
348.15 K, m1 = 7.501	–	1591.74
358.15 K, m1 = 0.0151	–	970.33
358.15 K, m1 = 0.0299	–	972.11
358.15 K, m1 = 0.0701	–	976.68
358.15 K, m1 = 0.2001	–	991.55
358.15 K, m1 = 0.5376	–	1028.65
358.15 K, m1 = 0.6957	–	1045.42
358.15 K, m1 = 1.001	–	1077.52
358.15 K, m1 = 2.5	–	1221.83
358.15 K, m1 = 4.636	–	1393.66
358.15 K, m1 = 5.479	–	1455.05
358.15 K, m1 = 7.501	–	1583.19
368.15 K, m1 = 0.0151	–	963.58
368.15 K, m1 = 0.0299	–	965.34
368.15 K, m1 = 0.0701	–	969.93
368.15 K, m1 = 0.2001	–	984.74
368.15 K, m1 = 0.5376	–	1021.81
368.15 K, m1 = 0.6957	–	1038.47
368.15 K, m1 = 1.001	–	1070.31
368.15 K, m1 = 2.5	–	1213.99
368.15 K, m1 = 4.636	–	1384.78
368.15 K, m1 = 5.479	–	1446.45
368.15 K, m1 = 7.501	–	1574.23
